The source of these data is ChEMBL document CHEMBL1201862, “PubChem BioAssay data set” (2004).

SMILES strings stand for the structures.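 Briefly, cells in 96-well plates were exposed to five compound concentrations for 48 h, and endpoints were estimated by linear interpolation. The concentration for 50% growth inhibition is given as GI50.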 Calls of active or inactive are those of the source. No stated cut-off is given here; in the data, active = GI50 up to about 1.1 µM and inactive = higher.

Assay in all cases: growth of human tumour cells (NCI), 48 h
For experiment [1], the system named is NCI/ADR-RES.
For experiment [2], the system named is SF-539.
The test system of experiment [3] is OVCAR-4.
Experiment [4] has as its system CCRF-CEM.
The subject of experiment [5] is UO-31.
For experiment [6], the system named is SF-268.
Experiment [7] has as its system UACC-62.
Experiment [8] deals with MDA-N.
Experiment [9] has as its system BT-549.
Experiment [10] concerns HL-60.
Experiment [11] has as its system HCT-15.
Experiment [12] has as its system COLO 205.
Experiment [13] has as its system SR.
Experiment [14] concerns OVCAR-3.
The test system of experiment [15] is EKVX.
Experiment [16] concerns MOLT-4.
The test system of experiment [17] is SNB-19.
Experiment [18] deals with Malme-3M.
For experiment [19], the system named is MDA-MB-435.

As to `O=C1c2cc([N+](=O)[O-])sc2C(=O)c2ccsc21`, the GI50 in experiment [1] was 0.824 µM (active); in experiment [2], 0.365 µM (active); in experiment [3], 0.48 µM (active); in experiment [4] it was 0.075 µM (active); in experiment [5], 1.2 µM (inactive); in [6], 0.361 µM (active). For the same compound, the GI50 in experiment [7] was 0.204 µM (active); in [8] it was 0.191 µM (active); in experiment [9] it was 0.438 µM (active); in experiment [10], < 0.01 µM (active); in [11], 0.284 µM; in experiment [12] it was 0.525 µM (active). Besides, the GI50 in experiment [13] is < 0.0129 µM (active); in experiment [14] it was 0.0392 µM (active); in experiment [15] it was 1.08 µM (active); in [16], 0.215 µM (active); in [17], 1.89 µM (inactive); in [18], 0.164 µM (active). Also, the GI50 in [19] was 0.177 µM (active).

For `CCCCCC(=O)OC[n+]1ccc(-c2c(COC(=O)NC(C)C)c(COC(=O)NC(C)C)c3n2CCC3)cc1`, the GI50 was > 100 µM (inactive) in [1]; > 100 µM (inactive) in [2]; > 100 µM (inactive) in [3]; 43.2 µM (inactive) in experiment [4]; > 100 µM (inactive) in experiment [5]; > 94.6 µM (inactive) in experiment [6]. Besides, the GI50 in [7] is 26.5 µM (inactive); in [8], > 100 µM (inactive); in experiment [9], > 100 µM (inactive); in experiment [10] it was 37.3 µM (inactive); in experiment [11], greater than 100 µM; in experiment [12], > 100 µM (inactive). The GI50 in [13] is 16.9 µM (inactive); in [14] it was > 100 µM (inactive); in [15], > 100 µM (inactive); in experiment [16], 35.9 µM (inactive); in experiment [17], > 100 µM (inactive); in experiment [18], > 100 µM (inactive). Moreover, the GI50 in [19] is > 100 µM (inactive).

With `CC(=O)OC[C@@H](OC(C)=O)[C@@H](OC(C)=O)[C@H]1OC[C@@H]2C[C@H]([C@H]1OC(C)=O)N(Cc1ccccc1)O2`, the GI50 is > 100 µM (inactive) in experiment [1]; > 100 µM (inactive) in experiment [2]; > 100 µM (inactive) in experiment [3]; > 100 µM (inactive) in experiment [4]; 61.7 µM (inactive) in experiment [5]; > 100 µM (inactive) in experiment [6]. The GI50 in experiment [7], in experiment [8], in experiment [9], in experiment [10], in experiment [12] and in [13] was > 100 µM (inactive) each time. Further, the GI50 in [14], in [15], in experiment [16], in [17], in [18] and in [19] was > 100 µM (inactive) each time.

Turning to `O=[N+]([O-])c1ccc(NN/N=N/c2ccc(-c3nc4ccccc4s3)cc2)c([N+](=O)[O-])c1`, the GI50 in experiment [1] was 25.1 µM (inactive); in [2], 18.8 µM (inactive); in experiment [3], 24.6 µM (inactive); in [4] it was 28.6 µM (inactive); in [5], 19.1 µM (inactive); in experiment [6] it was 26.5 µM (inactive). Further, the GI50 in [7] was 14 µM (inactive); in experiment [8], 19 µM (inactive); in experiment [9], 23.8 µM (inactive); in [10] it was 16 µM (inactive); in experiment [11], 22.7 µM; in [12] it was 16.4 µM (inactive). Also, the GI50 was 26.8 µM (inactive) in experiment [13]; 19.8 µM (inactive) in experiment [14]; 15 µM (inactive) in experiment [15]; 13.7 µM (inactive) in experiment [16]; 31.1 µM (inactive) in experiment [17]; 28.2 µM (inactive) in [18]. Also, in experiment [19], the GI50 was 24.1 µM (inactive).

Consider `CC(C)C1CNC(=O)C2(/C=N/C(C(C)C)CNC(=O)C3(/C=N/1)CCCO3)CCCO2` (configuration not stated), for which the GI50 in [1], in experiment [2], in [3], in experiment [4], in experiment [6] and in experiment [7] was > 10 µM (inactive) in each case. The GI50 in experiment [8] was > 10 µM (inactive); in experiment [9] it was > 10 µM (inactive); in experiment [10] it was > 10 µM (inactive); in experiment [11], greater than 10 µM; in experiment [12] it was > 10 µM (inactive); in experiment [13], > 10 µM (inactive). Moreover, the GI50 in [14], in [15], in experiment [16], in experiment [17], in [18] and in experiment [19] was > 10 µM (inactive) in each case.

For `CCOC(=O)C12CC(C)=C(C)CC1CCCc1ccccc12` (configuration not stated), the GI50 in experiment [1] is 39.4 µM (inactive); in [2], 28.2 µM (inactive); in experiment [3], 32.5 µM (inactive); in [4], 18.4 µM (inactive); in [5], 47 µM (inactive); in [6], 38.9 µM (inactive). Besides, the GI50 was 21.9 µM (inactive) in experiment [7]; 26 µM (inactive) in [8]; 43.3 µM (inactive) in [9]; 11.2 µM (inactive) in experiment [10]; 22.3 µM in experiment [11]; 16.6 µM (inactive) in [12]. Further, the GI50 in [13] was 23.8 µM (inactive); in experiment [14], 17.5 µM (inactive); in experiment [15] it was 21.1 µM (inactive); in experiment [16] it was 18 µM (inactive); in [17], 29.6 µM (inactive); in experiment [18], 23 µM (inactive). For the same compound, in experiment [19], the GI50 was 27.2 µM (inactive).

Regarding `CCCCN1C(=O)CC2[C@@H]3CCc4cc(OC)ccc4C3CC[C@]2(C)C1=O` (some centres not stated), the GI50 in [1], in experiment [2], in experiment [3], in experiment [4], in [5] and in experiment [6] was > 10 µM (inactive) throughout. The GI50 in [7] is > 10 µM (inactive); in [8] it was > 10 µM (inactive); in experiment [9], > 10 µM (inactive); in [10], 5.04 µM (inactive); in experiment [11] it was greater than 10 µM; in [12] it was > 10 µM (inactive). Also, the GI50 is 6.85 µM (inactive) in [13]; > 10 µM (inactive) in [14]; > 10 µM (inactive) in experiment [15]; > 10 µM (inactive) in experiment [16]; > 10 µM (inactive) in experiment [17]; > 10 µM (inactive) in experiment [18]. The GI50 in experiment [19] is > 10 µM (inactive).

As to `COC(=O)C1(Cc2ccc3c(c2)CCC3)Cc2ccccc2C1`, the GI50 was 44.1 µM (inactive) in experiment [1]; 34.4 µM (inactive) in experiment [2]; 16.8 µM (inactive) in experiment [3]; 11.5 µM (inactive) in experiment [4]; 33.7 µM (inactive) in [5]; 41.9 µM (inactive) in experiment [6]. In addition, the GI50 in [7] was 36.1 µM (inactive); in experiment [8], 29.9 µM (inactive); in experiment [9], 69.5 µM (inactive); in experiment [10], 17 µM (inactive); in experiment [11], 25.8 µM; in [12] it was 25 µM (inactive). Also, the GI50 is 29.6 µM (inactive) in experiment [13]; 40.7 µM (inactive) in experiment [14]; 36.1 µM (inactive) in experiment [15]; 6.73 µM (inactive) in [16]; 48.5 µM (inactive) in experiment [17]; 27.4 µM (inactive) in [18]. Moreover, the GI50 in experiment [19] is 25.2 µM (inactive).

For `CCN(CC)CCNc1ccc2ncn3c4ccc(O)cc4c(=O)c1c23`, the GI50 was 2.81 µM (inactive) in experiment [1]; 0.458 µM (active) in [2]; 1.28 µM (inactive) in experiment [3]; 0.0719 µM (active) in [4]; 0.429 µM (active) in [5]; 0.721 µM (active) in [6]. Further, the GI50 in experiment [7] is 1.25 µM (inactive); in [8], 4.19 µM (inactive); in experiment [9], 12 µM (inactive); in experiment [10] it was 0.131 µM (active); in experiment [11], 0.214 µM; in experiment [12], 0.769 µM (active). Further, the GI50 was < 0.01 µM (active) in experiment [13]; 3.55 µM (inactive) in experiment [14]; 7.28 µM (inactive) in experiment [15]; 0.0146 µM (active) in [16]; 1.01 µM (active) in experiment [17]; 1.48 µM (inactive) in experiment [18]. Moreover, the GI50 in [19] is 3.67 µM (inactive).

With `COc1ccc2nc3c([N+](=O)[O-])ccc4c3c(c2c1)N(CCCN(C)C)C(=S)N4CCCN(C)C`, the GI50 is 6.62 µM (inactive) in experiment [1]; 4 µM (inactive) in experiment [2]; 8.05 µM (inactive) in experiment [3]; 4.98 µM (inactive) in experiment [4]; 7.85 µM (inactive) in experiment [5]; 4.46 µM (inactive) in experiment [6]. For the same compound, the GI50 is 16 µM (inactive) in experiment [7]; 8.13 µM (inactive) in experiment [8]; 11.8 µM (inactive) in experiment [9]; 66.4 µM (inactive) in experiment [10]; 3.4 µM in experiment [11]; 1.54 µM (inactive) in [12]. Besides, the GI50 is 1.72 µM (inactive) in experiment [13]; 6.04 µM (inactive) in experiment [14]; 3.74 µM (inactive) in experiment [15]; 3.5 µM (inactive) in experiment [16]; 9.71 µM (inactive) in [17]; 2.65 µM (inactive) in [18]. In addition, the GI50 in experiment [19] is 5.74 µM (inactive).

As for `COc1cc2c(cc1[N+](=O)[O-])C(=O)C(Br)(Br)CCC2`, the GI50 in experiment [1] is 2.68 µM (inactive); in [2], 1.9 µM (inactive); in [3], 4.62 µM (inactive); in experiment [4] it was 0.101 µM (active); in experiment [5], 1.61 µM (inactive); in experiment [6] it was 4.14 µM (inactive). The GI50 in experiment [7] was 3.43 µM (inactive); in experiment [8] it was 3.09 µM (inactive); in [9], 2.12 µM (inactive); in [10] it was 3.22 µM (inactive); in experiment [11], 1.66 µM; in experiment [12], 1.91 µM (inactive). For the same compound, the GI50 in experiment [13] is 0.743 µM (active); in experiment [14] it was 3.51 µM (inactive); in [15], 2.12 µM (inactive); in [16], 0.354 µM (active); in experiment [17], 7.01 µM (inactive); in [18] it was 2.13 µM (inactive). Further, in experiment [19], the GI50 was 2.81 µM (inactive).
